Experimental data taken from ChEMBL document CHEMBL4118122, “Identification and biological evaluation of thiazole-based inverse agonists of RORγt” (Bioorg Med Chem Lett, 2018).

Experiments:
D(2) dopamine receptor = D(2) dopamine receptor (Homo sapiens, UniProt P14416); assay: Displacement of [3H]7-OH-DPAT from human recombinant dopamine D2S receptor after 60 mins by scintillation counting analysis
[1] = molecular target: T1, Kappa-type opioid receptor (Homo sapiens, UniProt P41145); assay: Displacement of [3H]U69593 from human kappa receptor at 10 uM after 60 mins by scintillation counting analysis relative to control
[2] = Tmax in Sprague-Dawley rat at 5 mg/kg, po; type: ADME, organism-based; settings: in vivo
[3] = molecular target: Sodium-dependent dopamine transporter (Homo sapiens) (UniProt Q01959); assay: Displacement of [3H][…] from recombinant human Dopamine transporter at 10 uM after 120 mins by scintillation counting analysis relative to control
[4] = molecular target: C-X-C chemokine receptor type 2 (Homo sapiens) (UniProt P25025); assay: Displacement of [125I]IL-8 from human recombinant CXCR2 receptor at 10 uM after 60 mins by scintillation counting analysis relative to control
[5] = molecular target: B2 bradykinin receptor (Homo sapiens) (UniProt P30411); assay: Displacement of [3H]bradykinin from human recombinant B2 receptor at 10 uM after 60 mins by scintillation counting analysis relative to control
Adenosine receptor A2a = Adenosine receptor A2a (Homo sapiens, UniProt P29274); assay: Displacement of [3H]-CGS 21680 from human recombinant adenosine A2A receptor at 1 uM after 120 mins by scintillation counting analysis relative to control
[6] = molecular target: 5-hydroxytryptamine receptor 2A (Homo sapiens, UniProt P28223); assay: Displacement of [3H]ketanserin human recombinant 5-HT2A receptor after 60 mins by scintillation counting analysis
[7] = molecular target: Sodium-dependent dopamine transporter (Homo sapiens) (UniProt Q01959); assay: Displacement of [3H][…] from recombinant human dopamine transporter at 1 uM after 120 mins by scintillation counting analysis relative to control
[8] = molecular target: 5-hydroxytryptamine receptor 1A (Homo sapiens) (UniProt P08908); assay: Displacement of [3H]8-OH-DPAT from recombinant human 5-HT1A receptor at 10 uM after 60 mins by scintillation counting analysis relative to control
[9] = molecular target: 5-hydroxytryptamine receptor 3A (Homo sapiens) (UniProt P46098); assay: Displacement of [3H]BRL 43694 from human recombinant 5-HT3 receptor at 10 uM after 120 mins by scintillation counting analysis relative to control
[10] = molecular target: T1, Kappa-type opioid receptor; assay: Displacement of [3H]U69593 from human kappa receptor after 60 mins by scintillation counting analysis
[11] = molecular target: 5-hydroxytryptamine receptor 1A (Homo sapiens) (UniProt P08908); assay: Displacement of [3H]8-OH-DPAT from recombinant human 5-HT1A receptor at 1 uM after 60 mins by scintillation counting analysis relative to control
[12] = molecular target: Glycogen synthase kinase-3 alpha (Homo sapiens) (UniProt P49840); assay: Inhibition of GSK3alpha (unknown origin) at 10 uM in presence of ATP relative to control
Homo sapiens = organism: Homo sapiens; assay: Binding affinity to GABA-gated chloride channel (unknown origin) at 1 uM by antagonist radioligand binding assay relative to control
[13] = molecular target: Muscarinic acetylcholine receptor M3 (Homo sapiens, UniProt P20309); assay: Displacement of [3H]4-DAMP from human recombinant M3 receptor at 10 uM after 60 mins by scintillation counting analysis relative to control
[14] = molecular target: Serine/threonine-protein kinase pim-2 (Homo sapiens) (UniProt Q9P1W9); assay: Inhibition of recombinant full length GST-tagged human PIM2 expressed in baculovirus expression system at 10 uM in presence of ATP relative to control
[15] = molecular target: RAC-alpha serine/threonine-protein kinase (Homo sapiens) (UniProt P31749); assay: Inhibition of recombinant full length His-tagged human AKT1 expressed in baculovirus expression system at 10 uM in presence of ATP relative to control
[16] = molecular target: Calcium/calmodulin-dependent protein kinase type II subunit beta (Homo sapiens) (UniProt Q13554); assay: Inhibition of recombinant full length His-tagged human CaMK2beta expressed in baculovirus expression system at 10 uM in presence of ATP relative to control
Rattus norvegicus = organism: Rattus norvegicus; assay: Displacement of [3H]flunitrazepam from rat brain central BZD at 1 uM after 60 mins relative to control
[17] = molecular target: 5-hydroxytryptamine receptor 6 (Homo sapiens, UniProt P50406); assay: Displacement of [3H]LSD from human recombinant 5-HT6 receptor at 10 uM after 120 mins by scintillation counting analysis relative to control
[18] = Thermodynamic solubility of the compound in 30 mM phosphate buffer at 10 mM at pH 7 after 2 to 5 days by UV-HPLC analysis; type: physicochemical; settings: read-out: Therm_solubility
Histamine H2 receptor = Histamine H2 receptor (Homo sapiens, UniProt P25021); assay: Displacement of [125I]APT from human recombinant histamine H2 receptor at 10 uM after 120 mins by scintillation counting analysis relative to control
PXR (NR1I2) = molecular target: T2, PXR (NR1I2) (Homo sapiens, UniProt O75469); assay: […] at PXR LBD (unknown origin) expressed in HEK293 cells […] at 1 uM after 16 hrs by luciferase reporter gene assay relative to rifampicin; type: ADME, cell-based; settings: HEK293 cells expressing PXR LBD, read-out: Efficacy
T2 sequence (O75469 whole entry): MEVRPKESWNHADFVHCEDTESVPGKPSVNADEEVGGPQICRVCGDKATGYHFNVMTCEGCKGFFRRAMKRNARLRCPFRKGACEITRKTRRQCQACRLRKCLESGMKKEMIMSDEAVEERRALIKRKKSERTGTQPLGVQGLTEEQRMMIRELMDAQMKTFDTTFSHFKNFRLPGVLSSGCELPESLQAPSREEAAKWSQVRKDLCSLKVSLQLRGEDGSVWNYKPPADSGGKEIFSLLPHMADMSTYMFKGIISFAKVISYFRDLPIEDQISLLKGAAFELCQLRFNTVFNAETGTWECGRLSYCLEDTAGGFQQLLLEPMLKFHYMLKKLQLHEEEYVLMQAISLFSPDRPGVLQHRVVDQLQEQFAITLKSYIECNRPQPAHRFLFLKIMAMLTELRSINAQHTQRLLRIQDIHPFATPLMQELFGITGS

[19] = molecular target: Muscarinic acetylcholine receptor M2 (Homo sapiens) (UniProt P08172); assay: Displacement of [3H]AF-DX 384 from human recombinant M2 receptor at 1 uM after 60 mins by scintillation counting analysis relative to control
[20] = molecular target: Mitogen-activated protein kinase 3 (Homo sapiens) (UniProt P27361); assay: Inhibition of recombinant full length GST-tagged human ERK1 expressed in Escherichia coli at 10 uM in presence of ATP relative to control
[21] = molecular target: B2 bradykinin receptor (Homo sapiens) (UniProt P30411); assay: Displacement of [3H]bradykinin from human recombinant B2 receptor at 1 uM after 60 mins by scintillation counting analysis relative to control
Cytochrome P450 3A4 = Cytochrome P450 3A4 (Homo sapiens, UniProt P08684); assay: Inhibition of CYP3A4 (unknown origin); type: ADME
[22] = molecular target: Tyrosine-protein kinase Blk (Homo sapiens) (UniProt P51451); assay: Inhibition of recombinant full length His-tagged human Blk cytoplasmic domain expressed in Baculovirus expression system at 10 uM in presence of ATP relative to control

T1 sequence (P41145 whole entry): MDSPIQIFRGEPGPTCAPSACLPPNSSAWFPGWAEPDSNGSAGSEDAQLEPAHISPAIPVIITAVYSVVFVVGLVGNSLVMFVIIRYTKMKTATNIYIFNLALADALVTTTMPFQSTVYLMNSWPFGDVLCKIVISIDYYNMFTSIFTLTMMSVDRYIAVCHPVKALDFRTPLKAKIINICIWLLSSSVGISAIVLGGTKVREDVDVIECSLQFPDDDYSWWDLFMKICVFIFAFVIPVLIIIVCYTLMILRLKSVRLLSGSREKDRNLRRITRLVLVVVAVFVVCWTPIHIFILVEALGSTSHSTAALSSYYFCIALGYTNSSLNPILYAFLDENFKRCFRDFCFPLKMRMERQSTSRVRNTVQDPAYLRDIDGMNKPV
Sequence of Sodium-dependent dopamine transporter (Homo sapiens) (Q01959 whole entry): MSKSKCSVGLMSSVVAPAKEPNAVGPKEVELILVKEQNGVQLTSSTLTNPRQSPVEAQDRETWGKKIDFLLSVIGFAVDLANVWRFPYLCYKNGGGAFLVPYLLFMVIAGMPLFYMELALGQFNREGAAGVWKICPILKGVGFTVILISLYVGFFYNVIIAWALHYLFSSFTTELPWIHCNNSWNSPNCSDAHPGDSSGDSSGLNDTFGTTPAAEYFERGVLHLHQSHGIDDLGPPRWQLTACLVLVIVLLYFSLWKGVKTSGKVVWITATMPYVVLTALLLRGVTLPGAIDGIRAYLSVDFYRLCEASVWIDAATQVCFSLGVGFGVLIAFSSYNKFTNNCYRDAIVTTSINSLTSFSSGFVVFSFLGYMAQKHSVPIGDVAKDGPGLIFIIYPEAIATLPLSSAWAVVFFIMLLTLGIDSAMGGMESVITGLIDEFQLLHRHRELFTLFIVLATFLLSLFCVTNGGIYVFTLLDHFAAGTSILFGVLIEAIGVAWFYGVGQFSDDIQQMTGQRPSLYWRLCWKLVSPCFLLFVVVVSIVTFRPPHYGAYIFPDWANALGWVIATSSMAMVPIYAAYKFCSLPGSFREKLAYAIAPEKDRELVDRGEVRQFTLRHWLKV
Sequence of 5-hydroxytryptamine receptor 1A (Homo sapiens) (P08908 whole entry): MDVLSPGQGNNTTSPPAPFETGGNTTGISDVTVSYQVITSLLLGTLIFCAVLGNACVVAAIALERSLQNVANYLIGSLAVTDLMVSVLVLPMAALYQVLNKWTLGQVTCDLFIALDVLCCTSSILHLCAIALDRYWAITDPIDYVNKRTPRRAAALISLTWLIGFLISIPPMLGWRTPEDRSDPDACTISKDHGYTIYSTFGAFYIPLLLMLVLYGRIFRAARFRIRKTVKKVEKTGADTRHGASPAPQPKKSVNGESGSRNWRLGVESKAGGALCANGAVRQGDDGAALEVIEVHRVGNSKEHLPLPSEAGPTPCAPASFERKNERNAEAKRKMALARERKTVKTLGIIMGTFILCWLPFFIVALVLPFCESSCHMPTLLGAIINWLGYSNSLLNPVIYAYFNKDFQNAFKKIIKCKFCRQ
Sequence of B2 bradykinin receptor (Homo sapiens) (P30411 whole entry): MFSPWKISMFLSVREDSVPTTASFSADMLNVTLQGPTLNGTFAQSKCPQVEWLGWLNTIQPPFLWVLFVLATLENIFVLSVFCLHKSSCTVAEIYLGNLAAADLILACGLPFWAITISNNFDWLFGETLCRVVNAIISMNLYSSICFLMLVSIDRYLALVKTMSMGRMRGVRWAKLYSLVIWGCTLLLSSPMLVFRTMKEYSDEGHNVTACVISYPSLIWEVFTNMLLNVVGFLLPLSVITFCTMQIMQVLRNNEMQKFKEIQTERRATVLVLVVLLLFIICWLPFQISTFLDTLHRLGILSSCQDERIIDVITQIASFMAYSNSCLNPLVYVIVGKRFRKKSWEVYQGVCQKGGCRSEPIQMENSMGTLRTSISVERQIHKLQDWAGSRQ
Sequence of Serine/threonine-protein kinase pim-2 (Homo sapiens) (Q9P1W9 whole entry, looked up): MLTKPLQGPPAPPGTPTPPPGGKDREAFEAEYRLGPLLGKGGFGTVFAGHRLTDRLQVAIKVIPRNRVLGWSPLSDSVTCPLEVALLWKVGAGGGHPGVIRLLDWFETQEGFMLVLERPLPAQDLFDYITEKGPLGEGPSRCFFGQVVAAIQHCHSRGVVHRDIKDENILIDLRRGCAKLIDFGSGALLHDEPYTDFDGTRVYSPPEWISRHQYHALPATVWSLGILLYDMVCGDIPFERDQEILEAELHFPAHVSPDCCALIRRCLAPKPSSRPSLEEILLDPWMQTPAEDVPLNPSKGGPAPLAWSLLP
Sequence of Histamine H2 receptor (P25021 whole entry, the tested form may be a part): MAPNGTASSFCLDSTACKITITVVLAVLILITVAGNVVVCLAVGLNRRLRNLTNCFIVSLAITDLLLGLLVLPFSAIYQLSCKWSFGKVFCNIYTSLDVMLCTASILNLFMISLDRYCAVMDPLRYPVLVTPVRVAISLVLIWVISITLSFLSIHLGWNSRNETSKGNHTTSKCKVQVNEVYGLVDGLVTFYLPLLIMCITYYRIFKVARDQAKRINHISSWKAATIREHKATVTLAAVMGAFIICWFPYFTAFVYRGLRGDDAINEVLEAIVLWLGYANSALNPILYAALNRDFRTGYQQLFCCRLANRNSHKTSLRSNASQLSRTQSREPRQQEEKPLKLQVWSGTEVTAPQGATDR
Sequence of Calcium/calmodulin-dependent protein kinase type II subunit beta (Homo sapiens) (Q13554 whole entry): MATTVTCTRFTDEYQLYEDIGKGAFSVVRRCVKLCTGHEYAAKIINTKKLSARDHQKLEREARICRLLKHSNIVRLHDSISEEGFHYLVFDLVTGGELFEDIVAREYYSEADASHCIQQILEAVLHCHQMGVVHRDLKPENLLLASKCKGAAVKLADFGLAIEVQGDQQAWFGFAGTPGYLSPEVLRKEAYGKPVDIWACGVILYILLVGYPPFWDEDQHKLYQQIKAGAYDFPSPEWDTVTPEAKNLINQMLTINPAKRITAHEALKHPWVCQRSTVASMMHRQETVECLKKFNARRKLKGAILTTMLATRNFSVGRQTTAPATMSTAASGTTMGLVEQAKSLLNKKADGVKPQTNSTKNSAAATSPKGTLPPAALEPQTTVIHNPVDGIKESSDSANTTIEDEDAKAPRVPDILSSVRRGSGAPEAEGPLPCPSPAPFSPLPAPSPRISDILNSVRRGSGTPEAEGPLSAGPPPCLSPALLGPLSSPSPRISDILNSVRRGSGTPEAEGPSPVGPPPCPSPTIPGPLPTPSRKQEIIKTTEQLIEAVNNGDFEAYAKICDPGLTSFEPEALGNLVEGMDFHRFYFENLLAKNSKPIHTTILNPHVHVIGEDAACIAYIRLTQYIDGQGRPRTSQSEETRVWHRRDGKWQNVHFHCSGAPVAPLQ
Sequence of D(2) dopamine receptor (P14416 whole entry): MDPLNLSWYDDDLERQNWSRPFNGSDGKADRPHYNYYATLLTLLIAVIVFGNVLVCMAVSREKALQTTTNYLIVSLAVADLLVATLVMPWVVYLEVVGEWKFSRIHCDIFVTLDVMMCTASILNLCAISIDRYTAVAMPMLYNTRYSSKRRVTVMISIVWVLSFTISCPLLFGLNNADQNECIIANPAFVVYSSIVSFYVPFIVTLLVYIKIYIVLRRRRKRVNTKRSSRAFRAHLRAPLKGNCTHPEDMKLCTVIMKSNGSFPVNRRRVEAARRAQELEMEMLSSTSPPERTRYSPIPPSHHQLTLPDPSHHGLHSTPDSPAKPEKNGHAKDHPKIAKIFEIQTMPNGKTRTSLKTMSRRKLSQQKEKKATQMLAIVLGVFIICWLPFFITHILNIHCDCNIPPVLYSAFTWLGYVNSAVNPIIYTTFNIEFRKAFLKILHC
Sequence of Muscarinic acetylcholine receptor M3 (P20309 whole entry, looked up): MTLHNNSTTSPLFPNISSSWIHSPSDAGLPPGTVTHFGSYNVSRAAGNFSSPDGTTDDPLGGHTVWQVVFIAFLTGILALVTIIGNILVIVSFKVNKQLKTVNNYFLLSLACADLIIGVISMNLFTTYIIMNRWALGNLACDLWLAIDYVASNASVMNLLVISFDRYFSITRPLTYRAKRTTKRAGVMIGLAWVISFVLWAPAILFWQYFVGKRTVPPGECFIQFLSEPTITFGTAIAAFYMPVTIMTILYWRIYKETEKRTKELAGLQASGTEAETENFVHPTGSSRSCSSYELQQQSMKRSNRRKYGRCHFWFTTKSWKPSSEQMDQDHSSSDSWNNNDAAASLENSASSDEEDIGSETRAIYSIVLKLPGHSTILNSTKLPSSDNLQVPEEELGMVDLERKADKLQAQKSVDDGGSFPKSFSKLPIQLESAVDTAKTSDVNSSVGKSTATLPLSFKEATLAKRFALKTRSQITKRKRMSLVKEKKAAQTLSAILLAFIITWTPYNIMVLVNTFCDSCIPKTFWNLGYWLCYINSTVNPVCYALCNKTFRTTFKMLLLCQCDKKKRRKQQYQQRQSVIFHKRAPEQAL
Sequence of RAC-alpha serine/threonine-protein kinase (Homo sapiens) (P31749 whole entry): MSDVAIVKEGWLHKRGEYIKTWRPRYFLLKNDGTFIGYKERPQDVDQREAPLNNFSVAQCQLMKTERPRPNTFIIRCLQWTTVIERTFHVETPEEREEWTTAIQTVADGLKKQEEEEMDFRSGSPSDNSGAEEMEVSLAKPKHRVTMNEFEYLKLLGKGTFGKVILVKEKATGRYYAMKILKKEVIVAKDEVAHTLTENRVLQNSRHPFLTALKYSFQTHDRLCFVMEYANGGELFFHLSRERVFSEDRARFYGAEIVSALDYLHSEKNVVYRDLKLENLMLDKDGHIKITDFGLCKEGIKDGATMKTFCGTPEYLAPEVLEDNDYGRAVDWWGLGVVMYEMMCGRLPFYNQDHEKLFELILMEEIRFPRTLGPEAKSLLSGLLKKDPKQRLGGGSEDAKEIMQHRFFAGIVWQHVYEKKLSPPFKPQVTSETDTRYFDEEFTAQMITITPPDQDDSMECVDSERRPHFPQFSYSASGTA

CC(C)(C)NS(=O)(=O)c1ccc(-c2sc(C(=O)N[C@H]3C[C@H](C(=O)O)C3)nc2CC2CCCCC2)c2ccccc12
IC50 (D(2) dopamine receptor): 1.8 nM | inhibition [1]: < 10% | Tmax [2]: 48 min | inhibition [3]: 47% | inhibition [4]: 24% | inhibition [5]: < 10% | inhibition (Adenosine receptor A2a): 21% | IC50 [6]: 0.64 nM | inhibition [7]: 18% | inhibition [8]: 16% | inhibition [9]: 12% | IC50 [10]: 1.1 nM | inhibition [11]: < 10% | inhibition [12]: 0% | inhibition (Homo sapiens): 14% | inhibition [13]: 23% | inhibition [14]: 4% | inhibition [15]: -5% | inhibition [16]: 6% | inhibition (Rattus norvegicus): < 10% | inhibition [17]: 33% | solubility thermodynamic at 10000 µM [18]: < 1 µM | inhibition (Histamine H2 receptor): < 10% | Emax at 16 h, 1 µM (PXR (NR1I2)): 141% | inhibition [19]: < 10% | inhibition [20]: -7% | inhibition [21]: < 10% | INH (Cytochrome P450 3A4): > 10 µM | inhibition [22]: -5%
